Literature values in patent publication US20060052437A1, “Combination of an hmg-coa reductase inhibitor and a nitrate ester” (priority 2002, published 2006).

Assays:
[1] = compared to aspirin
[2] = at withdrawal from the market, August 2001

Compound | toxicity at gastric level [1] | deaths attributable to rhabdomyolysis [2] [deaths]
CC(=O)Oc1ccccc1C(=O)Oc1cccc(CO[N+](=O)[O-])c1 [NCX-4016, 2-acetyloxy-benzoic acid 3-nitroxymethyl-phenyl ester] | not toxic at gastric level | –
COCc1c(C(C)C)nc(C(C)C)c(/C=C/[C@@H](O)C[C@@H](O)CC(=O)O)c1-c1ccc(F)cc1 [cerivastatin] | – | 52
